Patent US12428415B2, “Matriptase 2 inhibitors and uses thereof” (Disc Medicine, Inc., priority 2018, dated 2025)

molecular target: T1, Human Recombinant Matriptase 2 (Homo sapiens, UniProt Q8IU80); test: Matriptase 2 fluorescence based inhibition assay, Method A (100 mM TRIS pH 9, 1 mg/mL BSA); assay type: biochemical; conditions: 1 uM; Assay Used A; read-out: Mar-2 % inhibition at 1 uM
T1 construct: purchased Enzo Life Sciences (an in-house preparation was also used) ALX-201-752-1
T1 sequence (Q8IU80 1-811): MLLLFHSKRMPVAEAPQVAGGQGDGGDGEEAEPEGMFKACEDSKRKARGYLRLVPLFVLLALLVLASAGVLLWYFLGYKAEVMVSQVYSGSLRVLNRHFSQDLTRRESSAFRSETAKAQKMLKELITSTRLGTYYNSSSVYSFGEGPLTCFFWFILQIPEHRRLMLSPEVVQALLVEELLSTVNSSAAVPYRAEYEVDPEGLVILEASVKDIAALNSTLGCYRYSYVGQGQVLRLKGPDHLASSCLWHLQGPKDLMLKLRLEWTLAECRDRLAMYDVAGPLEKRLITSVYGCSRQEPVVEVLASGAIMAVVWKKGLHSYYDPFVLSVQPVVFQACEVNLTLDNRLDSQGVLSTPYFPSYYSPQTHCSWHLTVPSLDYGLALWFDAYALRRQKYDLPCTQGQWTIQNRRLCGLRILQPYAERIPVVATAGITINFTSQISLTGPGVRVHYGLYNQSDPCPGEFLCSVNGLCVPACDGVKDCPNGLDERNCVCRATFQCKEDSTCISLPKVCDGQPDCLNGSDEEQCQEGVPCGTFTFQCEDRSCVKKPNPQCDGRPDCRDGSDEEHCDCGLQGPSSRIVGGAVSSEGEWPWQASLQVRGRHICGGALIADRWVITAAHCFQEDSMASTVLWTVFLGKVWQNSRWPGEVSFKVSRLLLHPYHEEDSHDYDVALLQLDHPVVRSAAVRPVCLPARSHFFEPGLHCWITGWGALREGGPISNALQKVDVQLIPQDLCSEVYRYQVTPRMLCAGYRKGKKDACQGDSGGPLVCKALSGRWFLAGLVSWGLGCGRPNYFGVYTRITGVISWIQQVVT
How it was run: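 At 25° C in 100 mM TRIS pH 9 with 1 mg/mL BSA and 1% DMSO, compounds were preincubated 30 min with 7 nM commercial or 15 nM in-house protein before adding 100 μM Boc-Gln-Ala-Arg-7-amido-4-methyl coumarin. Fluorescence at 360/480 nm after 60 min; single points at 1 and 10 μM, IC50 by variable-slope nonlinear regression.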

Row | SMILES | inhibition at 1 µM [%]
1 | COc1ccc(NC(=O)c2cc3ccc(C(=N)N)cc3n2Cc2ccc(C(N)=O)cc2)cc1OC [Compound I-69] | 0 to 25
2 | N=C(N)c1ccc2cc(C(=O)Nc3cccc(N4CC[C@@H](F)C4)c3)n(Cc3ccc(C(N)=O)cc3)c2c1 [Compound I-140] | 0 to 25
3 | N=C(N)c1ccc2c(N)c(C(=O)N[C@H]3CC[C@H](N)CC3)n(CCc3ccc(C(F)(F)F)cc3)c2c1 [Compound I-33, 3-Amino-N-((1r,4r)-4-aminocyclohexyl)-6-carbamimidoyl-1-(4-(trifluoromethyl)-phenethyl)-1H-indole-2-carboxamide] | 0 to 25
4 | N=C(NC(=O)OCc1ccccc1)c1ccc2cc(C(=O)Nc3cccc(N4CCCC4)c3)n(Cc3ccc(C(N)=O)cc3)c2c1 [Compound I-143] | 0 to 25
5 | N=C(N)c1ccc2cc(C(=O)Nc3cccc4cnccc34)n(Cc3ccc(C(N)=O)cc3)c2c1 [Compound I-73] | 25 to 50
6 | CC(C)[C@H](NC(=O)c1cc2ccc(C(=N)N)cc2n1Cc1ccc(C(N)=O)cc1)c1ccccc1 [Compound I-82] | 0 to 25
7 | CCOC(=O)NC(=N)c1ccc2cc(C(=O)Nc3cccc(N4CCCC4)n3)n(Cc3ccc(C(N)=O)cc3)c2c1 [Compound I-183, Ethyl ((1-(4-carbamoylbenzyl)-2-((6-(pyrrolidin-1-yl)pyridin-2-yl)carbamoyl)-1H-indol-6-yl)(imino)methyl)carbamate] | 0 to 25
8 | N=C(N)c1ccc2cc(C(=O)Nc3ccc4ncsc4c3)n(Cc3ccc(C(N)=O)cc3)c2c1 [Compound I-88] | 0 to 25
9 | N=C(N)c1ccc2cc(C(=O)Nc3ccc(F)c(Br)c3)n(Cc3ccc(C(N)=O)cc3)c2c1 [Compound I-111] | 0 to 25
10 | N=C(N)c1ccc2cc(C(=O)Nc3cc(F)c(F)c(Br)c3)n(Cc3ccc(C(N)=O)cc3)c2c1 [Compound I-130] | 0 to 25
11 | N=C(N)c1ccc2cc(C(=O)Nc3cccc([N+](=O)[O-])c3)n(Cc3ccc(C(N)=O)cc3)c2c1 [Compound I-131] | 0 to 25
12 | CC(C)N1CC[C@H](NC(=O)c2cc3ccc(C(=N)N)cc3n2Cc2ccc(C(N)=O)cc2)C1 [Compound I-196] | 0 to 25
13 | N=C(N)c1ccc2cc(C(=O)Nc3ccc(Cl)nc3)n(Cc3ccc(C(N)=O)cc3)c2c1 [Compound I-174] | 0 to 25
14 | N=C(N)c1ccc2cc(C(=O)Nc3ccc(N4CCCCC4)cc3)n(Cc3ccc(C(N)=O)cc3)c2c1 [Compound I-102] | 0 to 25
15 | N=C(N)c1ccc2cc(C(=O)N[C@H]3CC[C@H](N)CC3)n(CCc3cccc(Br)c3)c2c1 [Compound I-31] | 25 to 50
16 | N=C(N)c1ccc2cc(C(=O)Nc3cccc(-c4nccs4)c3)n(Cc3ccc(C(N)=O)cc3)c2c1 [Compound I-144] | 0 to 25
17 | N=C(N)c1ccc2cc(C(=O)N[C@H]3CC[C@H](N)CC3)n(CCCc3ccccc3)c2c1 [Compound I-34] | 25 to 50
18 | N=C(N)c1ccc2cc(C(=O)N[C@@H]3CC=CCC3)n(CCS(=O)(=O)c3ccccc3)c2c1 [Compound I-47] | 0 to 25

Next, values leading:

Row | inhibition at 1 µM [%] | SMILES
19 | 25 to 50 | N=C(N)c1ccc2cc(C(=O)Nc3ccc(N4CCC(F)(F)C4)cc3)n(Cc3ccc(C(N)=O)cc3)c2c1 [Compound I-97]
20 | 0 to 25 | N=C(N)c1ccc2cc(C(=O)NCc3cccc(CN)c3)n(CCc3ccccc3)c2c1 [Compound I-24]
21 | 0 to 25 | N=C(N)c1ccc2cc(C(=O)N[C@@H]3CC=CCC3)n(Cc3ccc(C(N)=O)cc3)c2c1 [Compound I-189]
22 | 0 to 25 | CC(C)COC(=O)NC(=N)c1ccc2cc(C(=O)Nc3cccc(N4CCCC4)c3)n(Cc3ccc(C(N)=O)cc3)c2c1 [Compound I-147]
23 | 0 to 25 | N=C(N)c1ccc2cc(C(=O)Nc3ccc(C(=O)N4CCC4)cc3)n(Cc3ccc(C(N)=O)cc3)c2c1 [Compound I-92]
24 | 25 to 50 | N=C(N)c1ccc2cc(C(=O)NC3CCC(F)(F)CC3)n(CCS(=O)(=O)c3ccccc3)c2c1 [Compound I-48]
25 | 0 to 25 | N=C(N)c1ccc2cc(C(=O)NCCc3ccccc3)n(Cc3ccc(C(N)=O)cc3)c2c1 [Compound I-81]
26 | 0 to 25 | N=C(N)c1ccc2cc(C(=O)Nc3ccc(N4CCCC4)cc3)n(Cc3ccc(C(N)=O)cc3)c2c1 [Compound I-90]

same assay, conditions: at 1 uM; Assay Used = A; read-out: Mar-2 % inhibition at 1 uM

Row | SMILES | inhibition at 1 µM [%]
27 | N=C(N)c1ccc2cc(C(=O)N3CCC(CF)CC3)n(Cc3ccc(-c4ccccc4)cc3)c2c1 [Compound I-308] | 0 to 25
28 | N=C(N)c1ccc2cc(C(=O)N3CCC(CCN)CC3)n(Cc3ccc(Oc4ccc(F)cc4)cc3)c2c1 [Compound I-316] | 0 to 25
29 | N=C(N)c1ccc2cc(C(=O)N3CCC(F)(F)CC3)n(Cc3ccc(OC(F)(F)F)cc3)c2c1 [Compound I-290] | 0 to 25
30 | N=C(N)c1ccc2cc(C(=O)N3CC[C@@H](N)C3)n(CCc3ccccc3)c2c1 [Compound I-300] | 25 to 50
31 | N=C(N)c1ccc2cc(C(=O)N3CCC(C(=O)NCCCN)CC3)n(CCc3ccccc3)c2c1 [Compound I-358] | 25 to 50
32 | N=C(N)c1ccc2cc(C(=O)N3CCC(CCN)CC3)n(Cc3cccc(Oc4ccccc4)c3)c2c1 [Compound I-321] | 25 to 50
33 | N=C(N)c1ccc2cc(C(=O)N3CCC(F)CC3)n(Cc3ccc(C(=O)NCCN)cc3)c2c1 [Compound I-393] | 0 to 25
34 | N=C(N)c1ccc2cc(C(=O)NC3Cc4ccccc4C3)n(Cc3ccc(C(N)=O)cc3)c2c1 [Compound I-201] | 0 to 25
35 | CC1CCC(NC(=O)c2cc3ccc(C(=N)N)cc3n2Cc2ccc(C(=O)N(C)C)cc2)CC1 (stereo not shown) [Compound I-218, 6-Carbamimidoyl-1-(4-(dimethylcarbamoyl)benzyl)-N-(4-methylcyclohexyl)-1H-indole-2-carboxamide] | 0 to 25
36 | CCOc1ccc(-c2cccc(Cn3c(C(=O)N[C@H]4CC[C@H](N)CC4)cc4ccc(C(=N)N)cc43)c2)cc1 [Compound I-239] | 25 to 50
37 | N=C(N)c1ccc2cc(C(=O)NC3CCC(F)(F)CC3)n(Cc3ccc(NC(=O)CCN)cc3)c2c1 [I- s263] | 0 to 25
38 | N=C(N)c1ccc2cc(C(=O)N3CCC(F)(F)CC3)n(CCS(=O)(=O)c3ccccc3)c2c1 [Compound I-344] | 0 to 25
39 | N=C(N)c1ccc2cc(C(=O)N[C@H]3CC[C@H](N)CC3)n(Cc3ccc(NC(=O)CCN)cc3)c2c1 [Compound I-262, N-((1r,4r)-4-Aminocyclohexyl)-1-(4-(3-aminopropanamido)benzyl)-6-carbamimidoyl-1H-indole-2-carboxamide] | 25 to 50
40 | N=C(N)c1ccc2cc(C(=O)N[C@H]3CC[C@H](N)CC3)n(Cc3ccc(-c4ccccc4)cc3)c2c1 [Compound I-234] | 25 to 50
41 | N=C(N)c1ccc2cc(C(=O)N3CCC(F)(F)CC3)n(Cc3ccc(-c4ccccc4)cc3)c2c1 [Compound I-306] | 0 to 25
42 | CC(C)CCn1c(C(=O)N2CCC(F)(F)CC2)cc2ccc(C(=N)N)cc21 [Compound I-271] | 0 to 25
43 | N=C(N)c1ccc2cc(C(=O)NCC3CCCCC3)n(Cc3ccc(B(O)O)cc3)c2c1 [Compound I-231] | 0 to 25
44 | NCCC(=O)Nc1ccc(Cn2c(C(=O)N3CCC(CCN)CC3)cc3ccc(/C(N)=N/O)cc32)cc1 [Compound I-383] | 0 to 25

Other lines, results leading:

Row | inhibition at 1 µM [%] | SMILES
45 | 0 to 25 | N=C(N)c1ccc2cc(C(=O)N3CCC(F)(F)C3)n(Cc3ccc(C(=O)NCCN)cc3)c2c1 [Compound I-392]
46 | 0 to 25 | N=C(N)c1ccc2cc(C(=O)NCC3CCCCC3)n(Cc3ccc(C(N)=O)cc3Cl)c2c1 [Compound I-228, 6-Carbamimidoyl-1-(2-Chloro-4-carbamoyl-benzyl)-N-(cyclohexylmethyl)-1H-indole-2-carboxamide]
47 | 0 to 25 | CC1CCN(C(=O)c2cc3ccc(C(=N)N)cc3n2CCS(=O)(=O)c2ccccc2)CC1 [Compound I-340]
48 | 0 to 25 | N=C(N)c1ccc2cc(C(=O)N3CC[C@@H](N4CCOCC4)C3)n(Cc3ccc(C(N)=O)cc3)c2c1 [Compound I-333]
49 | 0 to 25 | N=C(N)c1ccc2cc(C(=O)N3CC[C@H](F)C3)n(Cc3cccc(NC(=O)CCN)c3)c2c1 [Compound I-368]
50 | 25 to 50 | N=C(N)c1ccc2cc(C(=O)N3CCC(CCN)CC3)n(Cc3ccc(Oc4cccc(C(F)(F)F)c4)cc3)c2c1 [Compound I-319]
51 | 25 to 50 | N=C(N)c1ccc2cc(C(=O)N3CCC(CCN)CC3)n(Cc3ccc(NC(=O)CCCN)cc3)c2c1 [Compound I-372]
52 | 0 to 25 | N=C(N)c1ccc2cc(C(=O)N3CC[C@H](F)C3)n(Cc3ccc(C(N)=O)cc3)c2c1 [Compound I-330]
